Data published in patent US8415469B2, “Compounds and methods for kinase modulation, and indications therefor” (Plexxikon Inc., priority 2005, dated 2013).

Columns and labels:
Format in all cases: biochemical
[1] = biological target: T1, Abl (Homo sapiens, UniProt P00519); test: AlphaScreen kinase assay, Abl; conditions: read-out: activity toward kinase Abl, IC50
T1 construct: P1121. pET-SPEC BI-PTP Abl G227-V515-X; His6 (N); made in house; host or cells: E. coli (PTP1B co-expressed)
T1 sequence (P00519 with tags, fused parts or gaps): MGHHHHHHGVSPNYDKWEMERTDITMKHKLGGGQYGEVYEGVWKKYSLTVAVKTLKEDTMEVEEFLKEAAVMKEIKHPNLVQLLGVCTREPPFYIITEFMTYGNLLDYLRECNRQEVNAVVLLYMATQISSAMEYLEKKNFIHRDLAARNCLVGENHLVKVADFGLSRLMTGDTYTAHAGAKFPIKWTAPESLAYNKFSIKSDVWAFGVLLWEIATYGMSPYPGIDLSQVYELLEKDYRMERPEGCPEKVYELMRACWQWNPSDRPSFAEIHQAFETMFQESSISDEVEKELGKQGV
How it was run: (§1)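 Here, phosphorylation of a biotin-tagged peptide was sensed by proximity of streptavidin donor and antibody-bearing acceptor beads. Test compounds covered 8 concentrations by 1:3 serial dilution of 20 mM DMSO stocks.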

[2] = biological target: T2, B-Raf V600E (Homo sapiens, UniProt P15056, V600E); test: AlphaScreen kinase assay, B-Raf V600E; conditions: read-out: IC50, activity toward kinase B-Raf V600E
T2 construct: P4254. pFastBacBD-CDC37 BRAF D437-K722-X, V600E; His6 with pFastBac HT leader (TEV site) (N); made in house; host or cells: Sf9 (baculovirus; chaperone CDC37 co-expressed)
T2 sequence (P15056 with tags, fused parts or gaps V600E): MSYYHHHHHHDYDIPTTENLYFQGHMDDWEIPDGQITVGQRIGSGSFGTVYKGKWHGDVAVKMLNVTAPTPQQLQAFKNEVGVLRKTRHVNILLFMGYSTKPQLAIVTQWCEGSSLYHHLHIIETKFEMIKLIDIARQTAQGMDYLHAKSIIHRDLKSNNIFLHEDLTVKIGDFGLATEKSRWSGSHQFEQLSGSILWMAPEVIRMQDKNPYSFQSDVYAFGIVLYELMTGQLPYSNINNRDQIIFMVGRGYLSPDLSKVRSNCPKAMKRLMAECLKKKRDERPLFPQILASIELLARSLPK

[3] = biological target: T3, FGFR1 (Homo sapiens, UniProt P11362, C488A/C584S); test: AlphaScreen kinase assay, FGFR1; conditions: read-out: IC50, activity toward kinase FGFR
T3 construct: P1351.pET N6 BI-PTP FGFR A458-E765-X C488A, C584S; made in house; host or cells: E. coli (PTP1B co-expressed)
T3 sequence (P11362 458-765 C488A/C584S): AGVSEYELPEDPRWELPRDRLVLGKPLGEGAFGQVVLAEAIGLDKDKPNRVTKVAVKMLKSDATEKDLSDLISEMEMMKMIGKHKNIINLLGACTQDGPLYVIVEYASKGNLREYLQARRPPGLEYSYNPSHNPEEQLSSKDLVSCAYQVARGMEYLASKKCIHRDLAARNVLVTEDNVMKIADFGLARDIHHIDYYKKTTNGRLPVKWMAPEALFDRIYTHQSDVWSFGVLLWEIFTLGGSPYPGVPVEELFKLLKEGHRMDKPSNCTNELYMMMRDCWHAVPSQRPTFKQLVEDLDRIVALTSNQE

[4] = biological target: T4, Flt4 (Homo sapiens, UniProt P35916); test: AlphaScreen kinase assay, Flt4; conditions: read-out: IC50, activity toward kinase Flt4
T4 construct: purchased ProQinase GmbH (Freiburg, Germany)
T4 sequence (P35916 25-1363): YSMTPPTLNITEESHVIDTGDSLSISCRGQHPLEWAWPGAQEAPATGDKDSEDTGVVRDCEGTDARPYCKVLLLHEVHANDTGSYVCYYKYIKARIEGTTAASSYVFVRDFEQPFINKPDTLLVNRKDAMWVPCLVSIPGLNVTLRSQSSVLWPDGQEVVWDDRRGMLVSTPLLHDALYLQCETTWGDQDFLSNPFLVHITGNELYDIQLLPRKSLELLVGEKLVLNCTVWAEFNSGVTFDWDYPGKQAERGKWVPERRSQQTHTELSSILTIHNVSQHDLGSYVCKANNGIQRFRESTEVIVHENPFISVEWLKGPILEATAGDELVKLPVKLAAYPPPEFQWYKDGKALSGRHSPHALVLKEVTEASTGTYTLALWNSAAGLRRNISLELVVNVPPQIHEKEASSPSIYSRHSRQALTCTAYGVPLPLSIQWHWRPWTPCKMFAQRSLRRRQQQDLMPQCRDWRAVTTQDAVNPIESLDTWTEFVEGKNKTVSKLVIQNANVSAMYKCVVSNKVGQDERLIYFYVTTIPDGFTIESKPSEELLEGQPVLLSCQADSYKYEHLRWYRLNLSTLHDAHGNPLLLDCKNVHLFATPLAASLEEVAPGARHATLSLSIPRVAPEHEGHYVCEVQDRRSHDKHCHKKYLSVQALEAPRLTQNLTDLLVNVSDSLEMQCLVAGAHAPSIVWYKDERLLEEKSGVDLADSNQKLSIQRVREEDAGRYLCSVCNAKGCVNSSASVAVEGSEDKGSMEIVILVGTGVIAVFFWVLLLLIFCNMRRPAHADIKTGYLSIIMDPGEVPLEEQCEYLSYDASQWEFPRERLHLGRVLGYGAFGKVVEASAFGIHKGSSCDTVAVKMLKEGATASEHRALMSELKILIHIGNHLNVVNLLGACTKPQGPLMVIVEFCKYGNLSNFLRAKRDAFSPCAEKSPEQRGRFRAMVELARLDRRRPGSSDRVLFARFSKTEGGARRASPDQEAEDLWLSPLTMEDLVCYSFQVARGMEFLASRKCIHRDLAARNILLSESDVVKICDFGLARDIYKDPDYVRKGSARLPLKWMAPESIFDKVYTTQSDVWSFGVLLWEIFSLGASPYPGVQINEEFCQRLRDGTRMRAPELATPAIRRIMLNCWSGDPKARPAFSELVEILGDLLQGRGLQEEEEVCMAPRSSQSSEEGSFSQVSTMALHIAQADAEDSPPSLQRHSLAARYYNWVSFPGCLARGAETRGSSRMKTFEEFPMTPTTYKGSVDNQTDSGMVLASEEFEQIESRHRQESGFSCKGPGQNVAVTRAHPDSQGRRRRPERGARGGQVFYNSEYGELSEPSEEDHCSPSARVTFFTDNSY
From the text: AlphaScreen assay was used to screen additional kinases. The assay is similarly dependent on the phosphorylation of a peptide substrate. In this assay, an antibody that recognizes phosphorylated substrate is bound to an acceptor bead. The peptide substrate is attached to biotin, which binds to a donor head that contains streptavidin. Thus phosphorylated substrate is bound by antibody and streptavidin, bringing the donor and acceptor heads into close proximity when kinase is not inhibited. The donor produces singlet oxygen which results in emission from the acceptor when they are in close proximity. Conversely, when kinase is inhibited, the donor and acceptor beads are not associated and the emission from the acceptor is reduced.
AlphaScreen assays were done using compounds dissolved in DMSO to a concentration of 20 mM. The compounds were diluted accordingly to the desired final concentrations in each sample well, using 1:3 serial dilution for a total of 8 concentration points.

[5] = biological target: T5, Jnk3 (Homo sapiens, UniProt P53779); test: AlphaScreen kinase assay, Jnk3; conditions: read-out: IC50, activity toward kinase Jnk3
T5 construct: purchased Upstate Biotechnology
T5 sequence (P53779 whole entry): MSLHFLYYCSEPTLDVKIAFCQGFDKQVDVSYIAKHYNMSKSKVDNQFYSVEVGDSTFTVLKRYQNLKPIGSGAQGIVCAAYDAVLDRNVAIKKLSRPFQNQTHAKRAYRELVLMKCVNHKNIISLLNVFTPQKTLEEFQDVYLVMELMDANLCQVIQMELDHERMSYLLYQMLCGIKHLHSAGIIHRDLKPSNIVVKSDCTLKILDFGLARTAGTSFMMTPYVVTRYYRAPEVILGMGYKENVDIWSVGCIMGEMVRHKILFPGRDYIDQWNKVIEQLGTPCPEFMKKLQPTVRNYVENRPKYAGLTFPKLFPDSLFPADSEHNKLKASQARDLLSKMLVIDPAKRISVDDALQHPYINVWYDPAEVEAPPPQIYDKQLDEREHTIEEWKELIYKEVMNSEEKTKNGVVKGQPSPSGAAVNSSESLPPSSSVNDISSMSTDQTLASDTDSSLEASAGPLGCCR

[6] = biological target: T6, Kdr (Homo sapiens, UniProt P35968); test: Z'-Lyte FRET kinase assay (Invitrogen), Kdr; conditions: read-out: IC50, activity toward kinase Kdr
T6 construct: purchased Invitrogen (assay run by Invitrogen)
T6 sequence (P35968 20-1356): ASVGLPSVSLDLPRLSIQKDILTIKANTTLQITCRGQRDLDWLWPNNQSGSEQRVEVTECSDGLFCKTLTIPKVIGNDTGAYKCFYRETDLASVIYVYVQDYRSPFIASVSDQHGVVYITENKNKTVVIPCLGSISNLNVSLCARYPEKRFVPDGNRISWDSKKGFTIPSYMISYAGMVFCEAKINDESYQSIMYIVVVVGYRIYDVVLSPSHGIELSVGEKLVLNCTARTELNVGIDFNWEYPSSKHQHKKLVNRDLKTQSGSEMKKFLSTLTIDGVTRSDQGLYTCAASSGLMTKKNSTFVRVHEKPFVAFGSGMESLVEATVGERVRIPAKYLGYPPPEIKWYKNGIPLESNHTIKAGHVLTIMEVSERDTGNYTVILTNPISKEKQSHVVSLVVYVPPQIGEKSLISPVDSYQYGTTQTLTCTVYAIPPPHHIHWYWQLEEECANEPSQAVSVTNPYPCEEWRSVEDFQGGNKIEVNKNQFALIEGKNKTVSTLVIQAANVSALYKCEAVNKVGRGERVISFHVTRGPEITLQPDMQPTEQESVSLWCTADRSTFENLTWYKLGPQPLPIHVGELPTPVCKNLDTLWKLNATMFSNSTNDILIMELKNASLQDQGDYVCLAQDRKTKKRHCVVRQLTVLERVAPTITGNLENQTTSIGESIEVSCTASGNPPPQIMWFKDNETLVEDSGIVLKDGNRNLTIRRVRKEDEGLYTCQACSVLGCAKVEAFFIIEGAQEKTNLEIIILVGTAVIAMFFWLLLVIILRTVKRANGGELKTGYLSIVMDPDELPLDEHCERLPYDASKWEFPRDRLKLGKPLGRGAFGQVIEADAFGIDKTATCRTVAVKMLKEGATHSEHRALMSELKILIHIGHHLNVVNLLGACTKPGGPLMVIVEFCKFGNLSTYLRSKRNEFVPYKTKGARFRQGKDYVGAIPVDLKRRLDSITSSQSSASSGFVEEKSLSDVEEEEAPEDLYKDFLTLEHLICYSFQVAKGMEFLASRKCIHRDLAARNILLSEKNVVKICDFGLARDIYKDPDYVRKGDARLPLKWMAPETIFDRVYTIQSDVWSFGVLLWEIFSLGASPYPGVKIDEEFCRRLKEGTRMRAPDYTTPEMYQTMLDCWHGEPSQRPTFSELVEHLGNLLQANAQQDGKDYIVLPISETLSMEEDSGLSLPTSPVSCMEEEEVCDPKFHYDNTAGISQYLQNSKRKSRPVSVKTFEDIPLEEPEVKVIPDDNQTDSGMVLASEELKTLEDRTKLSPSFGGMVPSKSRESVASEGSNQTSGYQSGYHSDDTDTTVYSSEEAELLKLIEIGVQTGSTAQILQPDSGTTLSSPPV

[7] = biological target: T7, Kit (Homo sapiens, UniProt P10721); test: AlphaScreen kinase assay, Kit; conditions: read-out: IC50, activity toward kinase Kit
T7 construct: P1332.N6 BI PTP KIT M552-K948-X COD; His6 (N); made in house; host or cells: E. coli (PTP1B co-expressed)
T7 sequence (P10721 with tags, fused parts or gaps): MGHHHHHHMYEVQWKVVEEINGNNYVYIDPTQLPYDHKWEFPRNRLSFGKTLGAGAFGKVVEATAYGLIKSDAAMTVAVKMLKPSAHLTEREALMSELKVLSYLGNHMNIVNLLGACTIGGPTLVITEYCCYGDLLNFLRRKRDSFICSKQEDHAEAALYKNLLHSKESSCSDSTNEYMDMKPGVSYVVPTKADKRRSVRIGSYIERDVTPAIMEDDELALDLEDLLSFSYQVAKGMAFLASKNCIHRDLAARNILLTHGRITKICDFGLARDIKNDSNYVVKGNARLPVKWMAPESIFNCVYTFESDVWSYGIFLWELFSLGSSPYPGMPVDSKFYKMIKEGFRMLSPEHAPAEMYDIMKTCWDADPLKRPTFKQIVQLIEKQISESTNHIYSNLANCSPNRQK

[8] = biological target: T8, Ret (Homo sapiens, UniProt P07949); test: AlphaScreen kinase assay, Ret; conditions: read-out: IC50, activity toward kinase Ret
T8 construct: P1378.pET-SF BI-PTP RET H661-R1012 HIS; made in house
T8 sequence (P07949 with tags, fused parts or gaps): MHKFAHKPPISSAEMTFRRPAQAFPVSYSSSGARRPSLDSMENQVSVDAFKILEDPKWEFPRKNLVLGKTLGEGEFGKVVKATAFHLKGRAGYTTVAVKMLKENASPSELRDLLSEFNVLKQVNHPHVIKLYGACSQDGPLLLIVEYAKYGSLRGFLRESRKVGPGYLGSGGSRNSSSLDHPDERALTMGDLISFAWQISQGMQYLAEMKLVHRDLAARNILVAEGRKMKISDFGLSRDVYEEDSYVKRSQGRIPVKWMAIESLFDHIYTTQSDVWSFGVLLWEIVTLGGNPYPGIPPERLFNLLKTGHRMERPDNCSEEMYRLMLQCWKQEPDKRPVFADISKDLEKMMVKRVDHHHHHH

[9] = biological target: T9, Src (Homo sapiens, UniProt P12931); test: AlphaScreen kinase assay, Src; conditions: read-out: IC50, activity toward kinase Src
T9 construct: P1144. pET-N6 BI-PTP SRC V86-L536-X; made in house
T9 sequence (P12931 with tags, fused parts or gaps): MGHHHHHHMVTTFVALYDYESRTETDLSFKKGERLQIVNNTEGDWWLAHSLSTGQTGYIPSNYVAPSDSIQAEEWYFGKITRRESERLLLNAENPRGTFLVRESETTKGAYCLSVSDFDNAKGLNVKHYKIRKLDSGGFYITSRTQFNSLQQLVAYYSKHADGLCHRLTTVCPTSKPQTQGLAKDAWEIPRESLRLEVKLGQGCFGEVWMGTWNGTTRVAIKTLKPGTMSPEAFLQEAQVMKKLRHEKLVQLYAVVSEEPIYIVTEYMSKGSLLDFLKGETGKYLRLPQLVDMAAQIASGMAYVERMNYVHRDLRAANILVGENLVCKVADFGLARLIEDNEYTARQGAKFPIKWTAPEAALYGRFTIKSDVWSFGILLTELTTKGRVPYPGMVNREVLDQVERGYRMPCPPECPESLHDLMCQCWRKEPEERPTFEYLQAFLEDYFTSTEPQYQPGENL

[10] = biological target: T10, Zap70 (Homo sapiens, UniProt P43403); test: AlphaScreen kinase assay, Zap70; conditions: read-out: IC50, activity toward kinase Zap70
T10 construct: P1868.pFastBac1 ZAP70 D327-G606 HIS, WT; His7 (HHHHHHH) (C); made in house
T10 sequence (P43403 with tags, fused parts or gaps): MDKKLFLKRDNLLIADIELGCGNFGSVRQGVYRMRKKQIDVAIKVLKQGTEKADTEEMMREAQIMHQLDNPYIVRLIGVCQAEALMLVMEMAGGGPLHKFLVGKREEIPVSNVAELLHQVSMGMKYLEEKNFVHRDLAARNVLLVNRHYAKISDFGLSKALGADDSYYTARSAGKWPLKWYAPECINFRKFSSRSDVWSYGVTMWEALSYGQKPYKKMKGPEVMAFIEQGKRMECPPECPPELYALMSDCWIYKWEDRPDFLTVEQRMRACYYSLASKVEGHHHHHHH
How it was run: as §1

[11] = biological target: T11, Fak (Homo sapiens, UniProt Q05397); test: AlphaScreen kinase assay, Fak; conditions: read-out: IC50, activity toward kinase Fak
T11 construct: P1358.pFastBacHtb FAK S411-Q686-X; His6 with pFastBacHTb leader (TEV site) (N); made in house; host or cells: Sf9 (baculovirus)

[12] = biological target: T12, Flt1 (Homo sapiens, UniProt P17948); test: AlphaScreen kinase assay, Flt1; conditions: read-out: IC50, activity toward kinase Flt1
T12 construct: P1826.pETN6 BI-PTP FLT1 M799-D1165-X WT; His6 (N); made in house; host or cells: E. coli (PTP1B co-expressed)
T12 sequence (P17948 with tags, fused parts or gaps): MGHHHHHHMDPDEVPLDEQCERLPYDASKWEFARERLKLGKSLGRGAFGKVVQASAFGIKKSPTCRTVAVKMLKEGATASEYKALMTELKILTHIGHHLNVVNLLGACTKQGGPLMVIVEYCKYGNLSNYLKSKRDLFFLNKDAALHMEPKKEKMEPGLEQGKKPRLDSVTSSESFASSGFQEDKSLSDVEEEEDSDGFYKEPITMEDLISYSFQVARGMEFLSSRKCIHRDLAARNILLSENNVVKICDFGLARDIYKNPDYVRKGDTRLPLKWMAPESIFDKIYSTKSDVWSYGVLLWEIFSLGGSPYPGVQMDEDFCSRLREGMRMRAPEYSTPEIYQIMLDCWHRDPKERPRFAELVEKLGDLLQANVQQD

[13] = biological target: T13, Jnk1 (Homo sapiens, UniProt P45983); test: AlphaScreen kinase assay, Jnk1; conditions: read-out: IC50, activity toward kinase Jnk1
T13 construct: purchased Upstate Biotechnology
T13 sequence (P45983 whole entry): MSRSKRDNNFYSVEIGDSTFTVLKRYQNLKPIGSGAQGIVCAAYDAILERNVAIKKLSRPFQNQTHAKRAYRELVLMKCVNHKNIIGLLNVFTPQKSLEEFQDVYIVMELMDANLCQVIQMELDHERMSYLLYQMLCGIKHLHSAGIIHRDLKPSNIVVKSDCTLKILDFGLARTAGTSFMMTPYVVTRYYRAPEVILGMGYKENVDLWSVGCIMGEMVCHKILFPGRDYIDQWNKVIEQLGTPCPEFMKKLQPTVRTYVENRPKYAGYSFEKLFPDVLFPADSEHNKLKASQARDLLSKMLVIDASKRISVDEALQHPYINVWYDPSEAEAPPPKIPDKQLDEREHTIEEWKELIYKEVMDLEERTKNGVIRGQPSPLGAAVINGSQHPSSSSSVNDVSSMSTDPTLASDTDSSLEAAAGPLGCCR

[14] = biological target: T14, c-Raf-1 (Homo sapiens, UniProt P04049); test: AlphaScreen kinase assay, c-Raf-1; conditions: read-out: IC50, activity toward kinase c-Raf-1
T14 construct: purchased Upstate Biotechnology

[15] = biological target: T15, Fms (Homo sapiens, UniProt P07333); test: AlphaScreen kinase assay, Fms; conditions: read-out: IC50, activity toward kinase Fms
T15 construct: purchased Upstate Biotechnology

[16] = biological target: MAP4K4 (Homo sapiens, UniProt O95819); test: AlphaScreen kinase assay, MAP4K4; conditions: read-out: IC50, activity toward kinase MAP4K4
[17] = biological target: T16, B-Raf (Homo sapiens, UniProt P15056); test: AlphaScreen kinase assay, B-Raf; conditions: read-out: IC50, activity toward kinase B-Raf
T16 construct: purchased Upstate Biotechnology

[18] = biological target: T17, Pyk2 (Homo sapiens, UniProt Q14289); test: AlphaScreen kinase assay, Pyk2; conditions: read-out: IC50, activity toward kinase Pyk2
T17 construct: purchased Upstate Biotechnology

[19] = biological target: T18, Jnk2 (Homo sapiens, UniProt P45984); test: AlphaScreen kinase assay, Jnk2; conditions: read-out: IC50, activity toward kinase Jnk2
T18 construct: purchased Roche Protein Expression Group (Indianapolis, IN)
How it was run: as §1

Measured: IC50

NC(=O)c1ccc(-c2cnc3[nH]cc(C(=O)c4cccc(O)c4)c3c2)cc1 [Compound P-0645]
≤ 10 µM: [1] | [2] | [3] | [4] | [5] | [6] | [7] | [8] | [9]

O=C(c1cccc(F)c1F)c1c[nH]c2nccc(-c3cc(F)cc(F)c3)c12 [Compound P-0205]
≤ 10 µM: [2] | [3] | [4] | [7] | [8] | [10]

NC(=O)c1ccc(-c2cnc3[nH]cc(C(=O)c4ccccc4F)c3c2)cc1 [Compound P-0691]
not listed: [9] | [10] | [14] | [15] | [16] | [17] | [18] | [19]
≤ 10 µM: all other assays above

Cc1cc(C(=O)c2c[nH]c3ncc(-c4ccc(C(N)=O)cc4)cc23)n(C)n1 [Compound P-0762]
≤ 10 µM: [1] | [2] | [4] | [6] | [7] | [8]

COc1cccc(C(=O)C2C=Nc3nccc(-c4cc(F)cc(F)c4)c32)c1 (stereo not drawn) [Compound P-0453]
≤ 10 µM: [1] | [2] | [3] | [4] | [7] | [8] | [9]

COc1ccc(F)c(C(=O)c2c[nH]c3ncc(-c4cccs4)cc23)c1 [Compound P-0656]
≤ 10 µM: [1] | [2] | [14] | [3] | [12] | [4] | [15] | [5] | [7] | [8]

Cc1cc(C(=O)c2c[nH]c3ncc(-c4cccc(C(N)=O)c4)cc23)n(C)n1 [Compound P-0224]
≤ 10 µM: [1] | [11] | [12] | [4] | [6] | [7] | [8]

Nc1cccc(-c2cnc3[nH]cc(C(=O)c4ccc5nsnc5c4)c3c2)c1 [Compound P-0703]
≤ 10 µM: [4] | [5] | [6] | [7] | [8] | [10]

O=C(c1ccc2ccccc2c1)c1c[nH]c2ncccc12 [Compound P-0495]
≤ 10 µM: [3] | [4] | [6] | [7] | [8] | [10] | [16]

O=C(c1cccc(Cl)c1Cl)c1c[nH]c2ncc(-c3cccnc3)cc12 [Compound P-0751]
≤ 10 µM: [1] | [2] | [3] | [12] | [4] | [6] | [7] | [8]

Nc1cccc(-c2cnc3[nH]cc(C(=O)c4ccc(Cl)cc4)c3c2)c1 [Compound P-0738]
≤ 10 µM: [1] | [4] | [5] | [6] | [7] | [8]

O=C(c1cc(O)ccc1F)c1c[nH]c2ncc(-c3cccnc3)cc12 [Compound P-0559]
not listed: [10] | [11] | [16] | [19]
≤ 10 µM: all other assays above

O=C(c1cccc(F)c1)c1c[nH]c2nccc(-c3cc(F)cc(F)c3)c12 [Compound P-0316]
≤ 10 µM: [1] | [3] | [4] | [6] | [7] | [8] | [9]

COc1cc(O)cc(Cc2c[nH]c3ncc(-c4ccsc4)cc23)c1 [Compound P-0594]
≤ 10 µM: [1] | [17] | [2] | [3] | [4] | [19] | [5] | [7] | [8]
